{"source": "patent US20060069132A1", "about": "“Azolecarboxamide herbicides” (priority 2004, published 2006)", "key": {"[1]": {"test_system": "barnyardgrass", "assay": "Test B pre-/postemergence herbicide test", "assay_type": "in vivo, Echinochloa crus-galli", "conditions": "Postemergence, scale 0 (no effect) to 100 (complete control)", "procedure,_shortened": "(§1)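 Greenhouse pot assay with simultaneous preemergence (treated seed) and postemergence (2–18 cm seedlings) applications of surfactant-containing, non-phytotoxic solvent formulations. Response scored visually 13–15 days later on a 0–100 scale, 100 meaning complete control.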"}, "[2]": {"test_system": "ducksalad", "assay": "Test B flooded paddy test", "assay_type": "in vivo, Heteranthera limosa", "conditions": "scale 0 to 100 (0 no effect, 100 complete control)", "procedure,_shortened": "(§2)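 Greenhouse test; postemergence application to plants at 1–4 leaves (2–18 cm); paddy species at 2 leaves; evaluated visually vs controls at 13–15 days; scale 0–100 (100 = complete control).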"}, "[3]": {"test_system": "wild oat", "assay": "Test B postemergence herbicide test", "assay_type": "in vivo, Avena fatua", "procedure,_shortened": "(§3)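 Read-out: visual comparison with controls, scored 0 to 100, where 100 means complete control and 0 no effect. Formulated chemicals were applied postemergence to plants 2–18 cm tall (1- to 4-leaf), or to flooded-paddy plants at the 2-leaf stage, then held 13 to 15 days under glass.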"}, "[4]": {"test_system": "rice", "assay": "Test B flooded paddy test", "assay_type": "in vivo, Oryza sativa", "conditions": "scale 0 to 100 (0 no effect, 100 complete control)", "procedure,_shortened": "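Each value is a visual 0–100 response rating taken against controls 13 to 15 days after treatment in the greenhouse. Plants received formulated chemical postemergence at the 1- to 4-leaf stage or, in flooded paddy, at the 2-leaf stage.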"}, "[5]": {"test_system": "small flower umbrella sedge", "assay": "Test B flooded paddy test", "assay_type": "in vivo, Cyperus difformis", "conditions": "scale 0 to 100 (0 no effect, 100 complete control)", "procedure,_shortened": "as §2"}, "[6]": {"test_system": "corn", "assay": "Test B pre-/postemergence herbicide test", "assay_type": "in vivo, Zea mays", "procedure,_shortened": "(§4)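 Evaluation is visual, comparing treated with control plants on a scale where 0 means no effect and 100 means full control. Treatments were preemergence, or postemergence on seedlings 2–18 cm tall, and held 13–15 days in the greenhouse.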"}, "[7]": {"test_system": "pigweed", "assay": "Test B pre-/postemergence herbicide test", "assay_type": "in vivo, Amaranthus retroflexus", "procedure,_shortened": "as §4"}, "[8]": {"test_system": "lambsquarters", "assay": "Test B pre-/postemergence herbicide test", "assay_type": "in vivo, Chenopodium album", "procedure,_shortened": "as §4"}, "[9]": {"test_system": "giant foxtail", "assay": "Test B pre-/postemergence herbicide test", "assay_type": "in vivo, Setaria faberi", "procedure,_shortened": "as §4"}, "[10]": {"test_system": "large crabgrass", "assay": "Test B pre-/postemergence herbicide test", "assay_type": "in vivo, Digitaria sanguinalis", "procedure,_shortened": "as §4"}, "[11]": {"test_system": "cocklebur", "assay": "Test B pre-/postemergence herbicide test", "assay_type": "in vivo, Xanthium strumarium", "procedure,_shortened": "as §1"}, "[12]": {"test_system": "wheat", "assay": "Test B postemergence herbicide test", "assay_type": "in vivo, Triticum aestivum", "set-up": "key to Wheat plant response rating: 0 = no effect, 100 = complete control", "procedure,_shortened": "as §3"}, "[13]": {"test_system": "Surinam grass", "assay": "Test B pre-/postemergence herbicide test", "assay_type": "in vivo, Urochloa decumbens", "procedure,_shortened": "as §4"}, "[14]": {"test_system": "barnyardgrass", "assay": "Test B flooded paddy test", "assay_type": "in vivo, Echinochloa crus-galli", "conditions": "scale 0 to 100 (0 no effect, 100 complete control)", "procedure,_shortened": "as §2"}, "[15]": {"test_system": "morningglory", "assay": "Test B pre-/postemergence herbicide test", "assay_type": "in vivo, Ipomoea coccinea", "procedure,_shortened": "as §1"}, "[16]": {"test_system": "blackgrass", "assay": "Test B postemergence herbicide test", "assay_type": "in vivo, Alopecurus myosuroides", "procedure,_shortened": "as §2"}, "[17]": {"test_system": "velvetleaf", "assay": "Test B pre-/postemergence herbicide test", "assay_type": "in vivo, Abutilon theophrasti", "procedure,_shortened": "as §4"}, "[18]": {"test_system": "redroot pigweed", "assay": "Test A pre-/postemergence herbicide test", "assay_type": "in vivo, Amaranthus retroflexus", "procedure,_shortened": "(§5)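 Seeds sown in sandy loam received a preemergence directed soil spray of compound in non-phytotoxic solvent with surfactant; postemergence plants (2–10 cm, one- to two-leaf stage) were sprayed to runoff at the same time. After ~10 days in greenhouse, injury was rated visually versus untreated controls (0 = no effect, 100 = complete control).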"}, "[19]": {"test_system": "morningglory", "assay": "Test A pre-/postemergence herbicide test", "assay_type": "in vivo, Ipomoea spp.", "procedure,_shortened": "as §5"}, "[20]": {"test_system": "velvetleaf", "assay": "Test A pre-/postemergence herbicide test", "assay_type": "in vivo, Abutilon theophrasti", "procedure,_shortened": "as §5"}, "[21]": {"test_system": "giant foxtail", "assay": "Test A pre-/postemergence herbicide test", "assay_type": "in vivo, Setaria faberi", "procedure,_shortened": "as §5"}, "[22]": {"test_system": "barnyardgrass", "assay": "Test A pre-/postemergence herbicide test", "assay_type": "in vivo, Echinochloa crus-galli", "procedure,_shortened": "as §5"}, "[23]": {"test_system": "large crabgrass", "assay": "Test A pre-/postemergence herbicide test", "assay_type": "in vivo, Digitaria sanguinalis", "procedure,_shortened": "as §5"}, "[24]": {"conditions": "Postemergence, 500 g ai/ha, scale 0 (no effect) to 100 (complete control)"}, "[25]": {"conditions": "postemergence, 125 g ai/ha, scale 0 to 100"}, "[26]": {"conditions": "Postemergence, 125 g ai/ha, 0 to 100 scale, 0 no effect, 100 complete control"}, "[27]": {"conditions": "Postemergence, 500 g ai/ha, 0 to 100 scale, 0 no effect, 100 complete control"}, "[28]": {"conditions": "preemergence, 125 g ai/ha, visual injury, 0 to 100 scale (0 no effect, 100 complete control)"}, "[29]": {"conditions": "preemergence, 500 g ai/ha, visual injury, 0 to 100 scale (0 no effect, 100 complete control)"}}, "data": [{"smiles": "C=CCN(C(C)=O)C(=O)c1ccc(F)c(NC(=O)c2cc(C(C)(C)C)nn2CC)c1", "note": "[Compound 442]", "values": [{"measurement": "Barnyardgrass plant response rating", "setting": "[1]; 125 g ai/ha", "result": 10}, {"measurement": "Barnyardgrass plant response rating", "setting": "[1]; 500 g ai/ha", "result": 20}, {"measurement": "Ducksalad plant response rating", "setting": "[2]; 125 g ai/ha", "result": 10}, {"measurement": "Oat, Wild plant response rating", "setting": "[3]; [24]", "result": 60}, {"measurement": "Oat, Wild plant response rating", "setting": "[3]; [25]", "result": 50}, {"measurement": "Rice plant response rating", "setting": "[4]; 125 g ai/ha", "result": 30}, {"measurement": "Sedge, Umbrella plant response rating", "setting": "[5]; 125 g ai/ha", "result": 70}, {"measurement": "Corn plant response rating", "setting": "[6]; [24]", "result": 30}, {"measurement": "Corn plant response rating", "setting": "[6]; [25]", "result": 30}, {"measurement": "Pigweed plant response rating", "setting": "[7]; [24]", "result": 70}, {"measurement": "Pigweed plant response rating", "setting": "[7]; [25]", "result": 50}, {"measurement": "Lambsquarters plant response rating", "setting": "[8]; [24]", "result": 70}, {"measurement": "Lambsquarters plant response rating", "setting": "[8]; [25]", "result": 40}, {"measurement": "Foxtail, Giant plant response rating", "setting": "[9]; [24]", "result": 20}, {"measurement": "Foxtail, Giant plant response rating", "setting": "[9]; [25]", "result": 20}, {"measurement": "Crabgrass, Large plant response rating", "setting": "[10]; [24]", "result": 20}, {"measurement": "Crabgrass, Large plant response rating", "setting": "[10]; [25]", "result": 10}, {"measurement": "Cocklebur plant response rating", "setting": "[11]; [24]", "result": 100}, {"measurement": "Cocklebur plant response rating", "setting": "[11]; [25]", "result": 80}, {"measurement": "Wheat plant response rating", "setting": "[12]; 500 g ai/ha, scale 0 to 100, 0 no effect, 100 complete control, preemergence", "result": 70}, {"measurement": "Wheat plant response rating", "setting": "[12]; [24]", "result": 40}, {"measurement": "Wheat plant response rating", "setting": "[12]; [25]", "result": 20}, {"measurement": "Surinam Grass plant response rating", "setting": "[13]; [24]", "result": 20}, {"measurement": "Surinam Grass plant response rating", "setting": "[13]; [25]", "result": 20}, {"measurement": "Barnyardgrass plant response rating", "setting": "[14]; 125 g ai/ha", "result": 0}, {"measurement": "Morningglory plant response rating", "setting": "[15]; [24]", "result": 30}, {"measurement": "Morningglory plant response rating", "setting": "[15]; [25]", "result": 20}, {"measurement": "Blackgrass plant response rating", "setting": "[16]; [24]", "result": 30}, {"measurement": "Blackgrass plant response rating", "setting": "[16]; [25]", "result": 30}, {"measurement": "Velvetleaf plant response rating", "setting": "[17]; [24]", "result": 30}, {"measurement": "Velvetleaf plant response rating", "setting": "[17]; [25]", "result": 30}]}, {"smiles": "CCn1nc(C(C)(C)C)nc1C(=O)Nc1cc(C(=O)N(C)C)ccc1F", "note": "[Compound 450]", "values": [{"measurement": "Ducksalad plant response rating", "setting": "[2]; 125 g ai/ha", "result": 40}, {"measurement": "Ducksalad plant response rating", "setting": "[2]; 500 g ai/ha", "result": 80}, {"measurement": "Rice plant response rating", "setting": "[4]; 125 g ai/ha", "result": 60}, {"measurement": "Rice plant response rating", "setting": "[4]; 500 g ai/ha", "result": 80}, {"measurement": "Sedge, Umbrella plant response rating", "setting": "[5]; 125 g ai/ha", "result": 60}, {"measurement": "Sedge, Umbrella plant response rating", "setting": "[5]; 500 g ai/ha", "result": 80}, {"measurement": "Pigweed plant response rating", "setting": "[18]; [26]", "result": 20}, {"measurement": "Pigweed plant response rating", "setting": "[18]; [27]", "result": 55}, {"measurement": "Pigweed plant response rating", "setting": "[18]; [28]", "result": 25}, {"measurement": "Pigweed plant response rating", "setting": "[18]; [29]", "result": 95}, {"measurement": "Morningglory plant response rating", "setting": "[19]; [26]", "result": 25}, {"measurement": "Morningglory plant response rating", "setting": "[19]; [27]", "result": 30}, {"measurement": "Morningglory plant response rating", "setting": "[19]; [28]", "result": 0}, {"measurement": "Morningglory plant response rating", "setting": "[19]; [29]", "result": 15}, {"measurement": "Velvetleaf plant response rating", "setting": "[20]; [26]", "result": 30}, {"measurement": "Velvetleaf plant response rating", "setting": "[20]; [27]", "result": 60}, {"measurement": "Velvetleaf plant response rating", "setting": "[20]; [28]", "result": 0}, {"measurement": "Velvetleaf plant response rating", "setting": "[20]; [29]", "result": 35}, {"measurement": "Barnyardgrass plant response rating", "setting": "[14]; 125 g ai/ha", "result": 50}, {"measurement": "Barnyardgrass plant response rating", "setting": "[14]; 500 g ai/ha", "result": 80}, {"measurement": "Foxtail, Giant plant response rating", "setting": "[21]; [26]", "result": 50}, {"measurement": "Foxtail, Giant plant response rating", "setting": "[21]; [27]", "result": 75}, {"measurement": "Foxtail, Giant plant response rating", "setting": "[21]; [28]", "result": 70}, {"measurement": "Foxtail, Giant plant response rating", "setting": "[21]; [29]", "result": 95}, {"measurement": "Barnyardgrass plant response rating", "setting": "[22]; [26]", "result": 60}, {"measurement": "Barnyardgrass plant response rating", "setting": "[22]; [27]", "result": 80}, {"measurement": "Barnyardgrass plant response rating", "setting": "[22]; [28]", "result": 60}, {"measurement": "Barnyardgrass plant response rating", "setting": "[22]; [29]", "result": 95}, {"measurement": "Crabgrass, Large plant response rating", "setting": "[23]; [26]", "result": 15}, {"measurement": "Crabgrass, Large plant response rating", "setting": "[23]; [27]", "result": 70}, {"measurement": "Crabgrass, Large plant response rating", "setting": "[23]; [28]", "result": 35}, {"measurement": "Crabgrass, Large plant response rating", "setting": "[23]; [29]", "result": 70}]}]}
